Experimental data: patent US9918948B2, “Methods and compositions for treating symptoms associated with post-traumatic stress disorder using cyclobenzaprine” (TONIX PHARMA HOLDINGS LIMITED, priority 2009, dated 2018)
Read-outs that look alike come from different tables or passages of the source.

Tests used:
[1] = system: sleep disturbance in PTSD; conditions: administered at bedtime; cited from earlier work
PTSD symptoms [2] = conditions: 1 to 4 mg orally at bedtime, alone or with sertraline or prazosin; one to three months after the trauma
From the text: (§1) At this point the usual natural history of the disease has progressed to the point where patients typically experience recurrent nightmares associated with their traumatic events. […] In addition patients at this stage in the evolution of their disorder have a constellation of daytime symptoms consisting of hyperarousal, hypervigilance, exaggerated startle, and other signs of overactive vigilance behaviors. Also, at this point patients begin to engage in avoidant behaviors such that they actively avoided people and circumstances that might trigger memories of the traumatic event. Lastly, patients begin to experience daytime reexperiencing of their traumatic events in the form of flashbacks. […] These include hyperarousal, hypervigilance, exaggerated startle, and avoidant behavior.

PTSD symptoms [3] = conditions: 1 to 4 mg orally at bedtime, alone or with sertraline or prazosin; PTSD present for greater than three months
From the text: as §1, with “In patients with well-established PTSD that has been present for greater than three months. At” for “At”, “nightmares and daytime flashbacks” for “nightmares”, “with highly vivid memories of the” for “with their”, “traumatic event.” for “traumatic events.”

PTSD symptoms [4] = conditions: 1 to 4 mg orally at bedtime, alone or with sertraline or prazosin, started within one week of the trauma
fibromyalgia patients = conditions: 120 fibromyalgia patients, 10 to 40 mg, 12-week period; cited from earlier work

| SMILES | sleep [1] | daytime symptoms not associated with sleep (hyperarousal, hypervigilance, exaggerated startle, avoidant behavior) (PTSD symptoms [2]) | sleep associated symptomatology (nightmares, distress, insomnia, daytime fatigue, cognitive function) (PTSD symptoms [2]) | daytime symptoms not associated with sleep (hyperarousal, hypervigilance, exaggerated startle, avoidant behavior) (PTSD symptoms [3]) | sleep associated symptomatology (nightmares, distress, insomnia, daytime fatigue, cognitive function) (PTSD symptoms [3]) | avoiding behavior or hyperarousal symptoms (PTSD symptoms [4]) | daytime fatigue compared to untreated patients (PTSD symptoms [4]) | sleep quality compared to untreated patients (PTSD symptoms [4]) | frequency of nightmares or flashbacks (PTSD symptoms [4]; three-month interval) | pain score (fibromyalgia patients) | quality of sleep (fibromyalgia patients) | total number of tender points and muscle tightness (fibromyalgia patients) |
| --- | --- | --- | --- | --- | --- | --- | --- | --- | --- | --- | --- | --- |
| COc1cc2nc(N3CCN(C(=O)c4ccco4)CC3)nc(N)c2cc1OC [prazosin] | improves sleep | – | – | – | – | – | – | – | – | – | – | – |
| CN(C)CCC=C1c2ccccc2C=Cc2ccccc21 [cyclobenzaprine, 3-(5H-dibenzo[a,d]cyclohepten-5-ylidene)-N,N-dimethyl-1-propanamine] | – | greatly reduced or eliminated | significant improvements | greatly reduced or eliminated | significant improvements | No avoiding behavior or hyperarousal symptoms develop | diminished | substantially better in quality | declines eventually approaching zero | significantly improved | significantly improved | reduction |
